Like-named read-outs stand apart in the source and are kept apart here. Residues, ends and D or L forms follow the SMILES beside them.
Columns and labels:
[1] = biological target: T1, SH2 and PTB domains (Homo sapiens, UniProt O14796); experiment: In-house protein microarrays (with or without 5 mM DTT), protein named per line; format: binding; conditions: protein SH2D1B
T1 construct: thioredoxin; made in house; host or cells: BL21(DE3)pLysS E. coli
T1 sequence (O14796 1-132): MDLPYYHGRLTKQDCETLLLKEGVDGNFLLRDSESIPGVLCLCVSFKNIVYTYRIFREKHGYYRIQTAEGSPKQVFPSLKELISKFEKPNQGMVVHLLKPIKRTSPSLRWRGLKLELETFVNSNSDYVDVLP
Procedure, shortened: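 KD values come from rhodamine fluorescence of duplicate spots after subtraction of a thioredoxin control. Domains were printed at ~40 µM on aldehyde slides, blocked 1 h at room temperature in pH 7.8 HEPES/KCl buffer with 5 mM DTT and 1% BSA, then peptide-probed.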

[2] = biological target: SH2 and PTB domains; conditions: original PM interactions, ref Jones et al. 2006 / Kaushansky et al. Chem and Biol 2008, cited from earlier work
Text: Supplement pone.0044471.s022.xlsx, sheet "Most recent PM interactions" | column: Kd || Supplement pone.0044471.s022.xlsx, sheet "All original PM interactions" | column: Kd

In the case of `CC(C)C[C@H](NC(=O)[C@@H]1CCCN1)C(=O)N[C@@H](CCC(N)=O)C(=O)N[C@@H](CCCNC(=N)N)C(=O)N[C@@H](Cc1ccc(OP(=O)(O)O)cc1)C(=O)N[C@@H](CO)C(=O)N[C@@H](CCC(=O)O)C(=O)N[C@@H](CC(=O)O)C(=O)N1CCC[C@H]1C(=O)N[C@H](C(=O)N[C@H](C(=O)N1CCC[C@H]1C(=O)N[C@@H](CC(=O)O)C(=O)O)C(C)C)[C@@H](C)O` [ErbB2 pY1112] (HELM PEPTIDE1{P.L.Q.R.[O=C([C@H](Cc1ccc(OP(=O)(O)O)cc1)N[*:1])[*:2]].S.E.D.P.T.V.P.D}$$$$V2.0), the “Kd” value ([1]; PM assay replicate # 39331, array fabrication # 39329) is reported as 2030 nM, the “Kd” value ([1]; PM assay replicate # 39336, array fabrication # 39329) is reported as 5390 nM and the “Kd” value ([1]; PM assay replicate # 39603, array fabrication # 39392) is reported as 490 nM.
In the case of “DNLYpYWDQDPPEd [ErbB2 pY1222, N-terminally rhodamine-labeled 13-mer phosphopeptide]”, the Kd ([2]; Protein ABL1) is given as 1840 nM, the Kd ([2]; Protein ABL2) is given as 190 nM and the Kd ([2]; Protein BCAR3) is given as 2000 nM. The Kd ([2]; Protein BLK) was 2000 nM, the Kd ([2]; Protein BMX) was 2000 nM and the Kd ([2]; Protein BTK) was 2000 nM. The Kd ([2]; Protein CRKL) was 1460 nM, the Kd ([2]; Protein DAPP1) was 2000 nM and the Kd ([2]; Protein FGR) was 2000 nM. For the same compound, the Kd ([2]; Protein GRB10) was 490 nM, the Kd ([2]; Protein HSH2D) was 2000 nM and the Kd ([2]; Protein ITK) was 2000 nM. For the same compound, the Kd ([2]; Protein NCK1) was 2000 nM, the Kd ([2]; Protein PIK3R1-C) was 2000 nM and the Kd ([2]; Protein PIK3R1-NC) was 1840 nM. For the same compound, the Kd ([2]; Protein PIK3R2-NC) was 2000 nM, the Kd ([2]; Protein PIK3R3-C) was 2000 nM and the Kd ([2]; Protein PIK3R3-NC) was 780 nM. The Kd ([2]; Protein PLCG1-N) was 2000 nM, the Kd ([2]; Protein PLCG1-NC) was 1790 nM and the Kd ([2]; Protein PLCG2-N) was 2000 nM. The Kd ([2]; Protein PLCG2-NC) was 2000 nM, the Kd ([2]; Protein PTPN6-C) was 2000 nM and the Kd ([2]; Protein PTPN11-N) was 2000 nM. The Kd ([2]; Protein RASA1-C) was 2000 nM, the Kd ([2]; Protein RASA1-N) was 500 nM and the Kd ([2]; Protein RASA1-NC) was 2000 nM. For the same compound, the Kd ([2]; Protein SH2B2) was 1470 nM, the Kd ([2]; Protein SH2B3) was 2000 nM and the Kd ([2]; Protein SH2D1A) was 2000 nM. The Kd ([2]; Protein SH2D1B) was 2000 nM, the Kd ([2]; Protein SH2D3A) was 1600 nM and the Kd ([2]; Protein SH2D3C) was 710 nM. For the same compound, the Kd ([2]; Protein SHC1-PTB) was 90 nM, the Kd ([2]; Protein SHC1) was 2000 nM and the Kd ([2]; Protein SHC2-PTB) was 460 nM. For the same compound, the Kd ([2]; Protein SHC3) was 1710 nM, the Kd ([2]; Protein SHC4) was 2000 nM and the Kd ([2]; Protein SHD) was 2000 nM. For the same compound, the Kd ([2]; Protein SHF) was 2000 nM, the Kd ([2]; Protein SLA2) was 2000 nM and the Kd ([2]; Protein SLA) was 2000 nM. For the same compound, the Kd ([2]; Protein SOCS1) was 1920 nM, the Kd ([2]; Protein SOCS2) was 2000 nM and the Kd ([2]; Protein SOCS3) was 2000 nM. For the same compound, the Kd ([2]; Protein SOCS5) was 2000 nM, the Kd ([2]; Protein SOCS6) was 2000 nM and the Kd ([2]; Protein SRC) was 2000 nM. The Kd ([2]; Protein SUPT6H) was 2000 nM, the Kd ([2]; Protein SYK-C) was 1970 nM and the Kd ([2]; Protein SYK-N) was 200 nM. The Kd ([2]; Protein SYK-NC) was 460 nM, the Kd ([2]; Protein TEC) was 1610 nM and the Kd ([2]; Protein TENC1) was 840 nM. The Kd ([2]; Protein TNS1) was 2000 nM, the Kd ([2]; Protein TNS3) was 1290 nM and the Kd ([2]; Protein TXK) was 2000 nM. For the same compound, the Kd ([2]; Protein VAV1) was 2000 nM, the Kd ([2]; Protein VAV2) was 2000 nM and the Kd ([2]; Protein VAV3) was 2000 nM. For the same compound, the Kd ([2]; Protein YES1) was 2000 nM.
